Legend:
[1] = system: Hepatitis C virus; test: Antiviral activity against HCV 1b infected in human HuH7 cells assessed as inhibition of viral sub-genomic replication by EG(delta-4AB)SEAP reporter protein assay; format: functional, organism-based, Hepacivirus hominis; details: genotype 1b, Huh-7
[2] = Cytotoxicity against human HuH7 cells; format: cell-based, Huh-7
[3] = Selectivity index, ratio of CC50 for human HuH7 cells to EC50 for HCV 1b; design: species or system Huh-7

SMILES | EC50 [1] [µM] | CC50 [2] [µM] | Ratio CC50/EC50 [3]
N#Cc1cccc(C(=O)NC(=S)N2CCc3c(OCCCCCOc4ccc(Cl)cc4)cccc32)c1 | 0.57 | 9.75 | 17
N#Cc1ccc(C(=O)NC(=S)N2CCc3c(OCCCCCOc4ccc(Cl)cc4)cccc32)cc1 | 0.51 | > 50 | >98
Cc1ccc(C(=O)NC(=S)N2CCc3c(OCCCCCOc4ccc(Cl)cc4)cccc32)cc1 | 1.94 | > 50 | >26
CN(C)c1ccc(C(=O)NC(=S)N2CCc3c(OCCCCCOc4ccc(Cl)cc4)cccc32)cc1 | 42.4 | > 50 | >1
O=C(NC(=S)N1CCc2c(OCCCCCOc3ccc(Cl)cc3)cccc21)c1cccnc1 | 2.37 | 11.1 | 5
O=C(NC(=S)N1CCc2c(OCCCCCOc3ccc(Cl)cc3)cccc21)c1ccoc1 | 1.72 | 20.1 | 12
NC(=S)N1CCCc2c(OCCCCCOc3cccc4ccccc34)cccc21 | > 50 | > 50 | >1
COc1ccc(C(=O)NC(=S)N2CCc3c(OCCCCCOc4ccc(Cl)cc4)cccc32)cc1 | 2.02 | 34.4 | 17
O=C(NC(=S)N1CCc2c(OCCCCCOc3ccc(Cl)cc3)cccc21)Oc1ccccc1 | > 50 | > 50 | >1
O=C(NC(=S)N1CCc2c(OCCCCCOc3ccc(Cl)cc3)cccc21)c1ccno1 | 2.06 | 37.1 | 18
O=C(NC(=S)N1CCc2c(OCCCCCOc3ccc(Cl)cc3)cccc21)c1cccs1 | 0.66 | 10.7 | 16
O=C(NC(=S)N1CCc2c(OCCCCCOc3ccc(Cl)cc3)cccc21)C1CCCCC1 | 42.5 | > 50 | >1
O=C(NC(=S)N1CCc2c(OCc3ccccc3)cccc21)c1ccccc1 | 3.18 | > 50 | >16
CC(C)(C)c1ccc(C(=O)NC(=S)N2CCc3c(OCCCCCOc4ccc(Cl)cc4)cccc32)cc1 | 1.95 | > 50 | >26
O=C(NC(=S)N1CCc2c(OCCCCCOc3ccc(Cl)cc3)cccc21)c1ccc(Br)cc1 | 0.88 | 29.1 | 33
NC(=S)N1CCc2c(OCCCCCOc3ccc(Cl)cc3)cccc21 | 4.71 | > 50 | >11
O=C(NC(=S)N1CCc2c(OCCCCCOc3ccc(Cl)cc3)cccc21)c1ccc([N+](=O)[O-])cc1 | 0.72 | 13.6 | 19
O=C(CCc1ccccc1)NC(=S)N1CCc2c(OCCCCCOc3ccc(Cl)cc3)cccc21 | 13.4 | > 50 | >4
O=C(NC(=S)N1CCc2c(OCCCCCOc3ccc(Cl)cc3)cccc21)c1ccc2ccccc2c1 | 2.16 | > 50 | >23
O=C(NC(=S)N1CCc2c(OCCCCCOc3ccc(Cl)cc3)cccc21)c1ccc(C(F)(F)F)cc1 | 1.23 | 32.7 | 27
O=C(NC(=S)N1CCc2c(OCCCCCOc3ccc(Cl)cc3)cccc21)c1ccco1 | 0.58 | 4.62 | 8
O=C(NC(=S)N1CCc2c(OCCCCCOc3ccc(Cl)cc3)cccc21)c1ccc(F)cc1 | 0.95 | 31.1 | 33
O=C(NC(=S)N1CCc2c(OCCCCCOc3ccc(Cl)cc3)cccc21)C1CCCC1 | 25.4 | > 50 | >2
O=C(NC(=S)n1ccc2c(OCCCCCOc3ccc(Cl)cc3)cccc21)c1ccccc1 | 4.06 | 29.5 | 7

The next lines start with results.

EC50 [1] [µM] | SMILES | CC50 [2] [µM] | Ratio CC50/EC50 [3]
0.49 | NC(=S)Nc1cccc(Oc2ccccc2)c1 |  | 
> 50 | S=C(NC(=S)N1CCc2c(OCCCCCOc3ccc(Cl)cc3)cccc21)Oc1ccccc1 | > 50 | >1
4.81 | O=C(NC(=S)N1CCc2cc(OCc3ccccc3)ccc21)c1ccccc1 | 45.2 | 9
1.1 | O=C(NC(=S)N1CCc2c(OCCCCCOc3ccc(Cl)cc3)cccc21)c1cc2ccccc2s1 | > 50 | >45
0.69 | O=C(NC(=S)N1CCc2c(OCCCCCOc3ccc(Cl)cc3)cccc21)c1ccc(Cl)cc1 | 21.7 | 31
5.05 | O=C(NC(=S)N1CCc2ccc(OCc3ccccc3)cc21)c1ccccc1 | 43.8 | 9
1.65 | O=C(NC(=S)N1CCc2c(OCCCCCOc3ccc(Cl)cc3)cccc21)c1ccccc1[N+](=O)[O-] | > 50 | >30
0.58 | O=C(NC(=S)N1CCc2c(OCCCCCOc3ccc(Cl)cc3)cccc21)c1cccc([N+](=O)[O-])c1 | 12.1 | 21
1.02 | O=C(NC(=S)N1CCc2c(OCCCCCOc3ccc(Cl)cc3)cccc21)c1ccsc1 | > 50 | >49
24.5 | NC(=S)n1ccc2c(OCCCCCOc3ccc(Cl)cc3)cccc21 | 24.7 | 1
> 50 | O=S(=O)(NC(=S)N1CCc2c(OCCCCCOc3ccc(Cl)cc3)cccc21)c1ccccc1 | > 50 | >1
0.79 | O=C(NC(=S)N1CCc2c(OCCCCCOc3ccc(Cl)cc3)cccc21)c1ccccc1 | > 50 | > 63
> 50 | O=C(NC(=S)N1CCc2cccc(OCc3ccccc3)c21)c1ccccc1 | > 50 | >1
31.6 | CCCC(=O)NC(=S)N1CCc2c(OCCCCCOc3ccc(Cl)cc3)cccc21 | > 50 | 2

From ChEMBL document CHEMBL1152383, “Design and synthesis of indole, 2,3-dihydro-indole, and 3,4-dihydro-2H-quinoline-1-carbothioic acid amide derivatives as novel HCV inhibitors” (Bioorg Med Chem Lett, 2009)
